In PubChem BioAssay (NCI) one finds TGI data, which are given here for 2 molecules.

The assay has as its system P388/ADR leukemia. Put plainly: NCI tumour cell line growth inhibition, 48 h.

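Exposure lasted 48 hours, with cells grown in 96-well plates and compounds tested at five concentrations. TGI: concentration producing complete growth inhibition.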

With `C/C=C(\C)c1cc(=O)c2c(C)cc3c(c2o1)C(=O)c1c(O)c(C2CC(C)(N(C)C)C(O)C(C)O2)cc(C2CC(N(C)C)C(O)C(C)O2)c1C3=O` (configuration not stated), the TGI was determined as 67.9 µM.

In turn, `NC(C/[N+]([O-])=N/O)C(=O)O` (configuration not stated) came in with a TGI of 336 µM.
